From patent US9951038B2, “Quinazolin-4(3H)-one-type piperidine compounds and uses thereof” (Purdue Pharma L.P., priority 2012, dated 2018) come the findings set out here.

The target in one assay is T1, CYP1A2 (Homo sapiens, UniProt P05177).
T1 sequence (P05177 1-516): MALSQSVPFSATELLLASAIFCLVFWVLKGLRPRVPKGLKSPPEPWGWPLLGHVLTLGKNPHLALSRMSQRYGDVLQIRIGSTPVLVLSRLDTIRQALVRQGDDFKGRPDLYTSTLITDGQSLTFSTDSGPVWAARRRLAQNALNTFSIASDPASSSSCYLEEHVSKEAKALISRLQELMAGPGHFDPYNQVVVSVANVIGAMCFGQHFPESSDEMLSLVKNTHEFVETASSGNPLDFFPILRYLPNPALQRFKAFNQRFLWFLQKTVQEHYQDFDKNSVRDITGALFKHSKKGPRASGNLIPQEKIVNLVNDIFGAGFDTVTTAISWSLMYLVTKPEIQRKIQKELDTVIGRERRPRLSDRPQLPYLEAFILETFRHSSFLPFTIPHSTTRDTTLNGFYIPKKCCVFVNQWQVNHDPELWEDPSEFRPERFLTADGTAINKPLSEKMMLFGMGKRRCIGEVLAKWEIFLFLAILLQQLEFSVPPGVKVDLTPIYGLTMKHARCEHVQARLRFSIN
As to the kind of experiment: Cytochrome P450 inhibition, pooled human hepatic microsome, CYP1A2. It counts as in vitro ADME.

For the next assay, the target named is T2, CYP2C9 (Homo sapiens, UniProt P11712).
T2 construct: using commercially available pooled human hepatic microsome; from tissue; host or cells: pooled human hepatic microsomes
As to the kind of experiment: Cytochrome P450 inhibition, pooled human hepatic microsome, CYP2C9. It counts as in vitro ADME.

In the next assay the target is T3, CYP2D6 (Homo sapiens, UniProt P10635).
T3 construct: using commercially available pooled human hepatic microsome; from tissue; host or cells: pooled human hepatic microsomes
As to the kind of experiment: Cytochrome P450 inhibition, pooled human hepatic microsome, CYP2D6 (dextromethorphan O-demethylation). It counts as in vitro ADME. The following applies: 5 μmol/L dextromethorphan, 15 min, 37° C.

The target in another assay is T4, CYP3A4 (Homo sapiens, UniProt P08684).
T4 construct: using commercially available pooled human hepatic microsome; from tissue; host or cells: pooled human hepatic microsomes
As to the kind of experiment: Cytochrome P450 inhibition, pooled human hepatic microsome, CYP3A4. It counts as in vitro ADME.

The next assay concerns the target Nociceptin receptor (Homo sapiens, UniProt P41146). As to the kind of experiment: biochemical.
Assay [1] has as its target human opioid receptor-like (ORL-1) (Homo sapiens, UniProt P41146). As to the kind of experiment: In vitro ORL-1 receptor [35S]GTPγS functional assay. The settings on record: for Emax: read-out: ORL-1 GTPγS Emax. It counts as biochemical. Background: Binding of GTPγS marks nucleotide exchange on a G protein.

A word on the IC50: it is the point on the concentration scale where inhibition reaches its midpoint. A low value points to greater potency in that assay. One may read the Ki as a measure of affinity in units of concentration, obtained from inhibition or displacement. A higher Ki goes with lower affinity. Usually EC50 stands for the concentration giving half of the maximal effect. Read a low EC50 as an effect from little substance. In general, Emax refers to the size of the effect at its maximum, as opposed to the concentration needed.

Chain of human opioid receptor-like (ORL-1) (P41146 whole entry): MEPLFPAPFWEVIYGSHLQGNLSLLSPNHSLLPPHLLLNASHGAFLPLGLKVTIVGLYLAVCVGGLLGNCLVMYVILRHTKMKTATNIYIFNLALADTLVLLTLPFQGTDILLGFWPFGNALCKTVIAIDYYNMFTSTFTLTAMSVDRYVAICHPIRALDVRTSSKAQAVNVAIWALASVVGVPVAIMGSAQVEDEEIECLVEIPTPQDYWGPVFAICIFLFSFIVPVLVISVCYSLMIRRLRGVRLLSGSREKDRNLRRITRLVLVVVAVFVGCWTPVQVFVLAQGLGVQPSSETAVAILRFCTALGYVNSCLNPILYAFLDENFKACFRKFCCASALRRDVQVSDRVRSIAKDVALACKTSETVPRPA
T4 sequence (P08684 whole entry): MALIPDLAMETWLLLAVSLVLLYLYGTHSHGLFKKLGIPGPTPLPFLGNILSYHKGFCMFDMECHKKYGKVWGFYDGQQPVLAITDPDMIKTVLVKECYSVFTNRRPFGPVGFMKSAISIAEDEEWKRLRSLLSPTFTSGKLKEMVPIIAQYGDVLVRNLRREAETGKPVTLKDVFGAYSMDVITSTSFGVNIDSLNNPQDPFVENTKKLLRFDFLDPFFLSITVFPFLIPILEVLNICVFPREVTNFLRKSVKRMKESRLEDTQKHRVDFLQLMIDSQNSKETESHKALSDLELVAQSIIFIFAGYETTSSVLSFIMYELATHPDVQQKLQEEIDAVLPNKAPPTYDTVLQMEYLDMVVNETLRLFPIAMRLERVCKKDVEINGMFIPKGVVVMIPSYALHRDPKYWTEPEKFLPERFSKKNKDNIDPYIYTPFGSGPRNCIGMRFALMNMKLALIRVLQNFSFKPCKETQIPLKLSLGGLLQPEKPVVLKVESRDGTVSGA
T2 sequence (P11712 whole entry): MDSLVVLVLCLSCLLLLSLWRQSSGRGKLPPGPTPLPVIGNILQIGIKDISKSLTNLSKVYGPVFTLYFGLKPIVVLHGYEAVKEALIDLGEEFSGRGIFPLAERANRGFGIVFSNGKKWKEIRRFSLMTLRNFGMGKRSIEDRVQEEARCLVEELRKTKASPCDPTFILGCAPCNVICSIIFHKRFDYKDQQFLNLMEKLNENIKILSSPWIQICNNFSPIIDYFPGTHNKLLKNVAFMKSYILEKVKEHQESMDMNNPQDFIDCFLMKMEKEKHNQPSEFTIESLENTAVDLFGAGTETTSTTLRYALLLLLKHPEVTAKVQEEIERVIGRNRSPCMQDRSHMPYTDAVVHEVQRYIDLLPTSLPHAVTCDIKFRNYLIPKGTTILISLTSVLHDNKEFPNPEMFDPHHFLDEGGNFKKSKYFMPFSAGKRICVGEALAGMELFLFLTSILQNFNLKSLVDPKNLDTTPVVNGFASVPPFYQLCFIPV
T3 sequence (P10635 whole entry): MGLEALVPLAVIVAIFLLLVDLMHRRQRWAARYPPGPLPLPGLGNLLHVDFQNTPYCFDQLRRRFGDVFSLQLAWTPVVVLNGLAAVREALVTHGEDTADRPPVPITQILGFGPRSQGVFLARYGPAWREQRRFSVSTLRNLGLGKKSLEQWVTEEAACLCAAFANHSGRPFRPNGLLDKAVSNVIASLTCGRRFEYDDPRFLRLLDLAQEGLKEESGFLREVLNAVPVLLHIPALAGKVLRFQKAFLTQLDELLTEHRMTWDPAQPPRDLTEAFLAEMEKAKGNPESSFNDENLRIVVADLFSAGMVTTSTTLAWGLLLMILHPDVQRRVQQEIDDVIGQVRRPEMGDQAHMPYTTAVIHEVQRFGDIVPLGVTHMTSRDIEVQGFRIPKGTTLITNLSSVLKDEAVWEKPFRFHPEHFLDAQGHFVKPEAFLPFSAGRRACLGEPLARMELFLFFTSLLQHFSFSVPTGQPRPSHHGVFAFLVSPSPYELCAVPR
Chain of Nociceptin receptor (P41146 whole entry, looked up): as the sequence (P41146 whole entry) above

`CCOC(=O)c1nc2ccccc2c(=O)n1C1C[C@H]2CCC[C@@H](C1)N2C1C[C@H]2CCC[C@@H](C1)C2` (stereo partly drawn) [8 (D12b), ethyl 3-((1R,1′R,3R,3′R,5S,5′S)-9′-aza[3,9′-bi(bicyclo[3.3.1]nonan)]-3′-yl)-4-oxo-3,4-dihydroquinazoline-2-carboxylate]: the IC50 against CYP1A2 was > 20 µM; against CYP2C9, > 20 µM; on CYP2D6, 9.7 µM; on CYP3A4, 6.5 µM. The compound also had a Ki on Nociceptin receptor of 0.252 µM.
Turning to `O=C(O)c1nc2ccccc2c(=O)n1C1C[C@H]2CCC[C@@H](C1)N2C1C[C@H]2CCC[C@@H](C1)C2` (stereo partly drawn) [9 (D2b), 3-((1R,1′R,3R,3′R,5S,5′S)-[3,9′-bi(9′-azabicyclo[3.3.1]nonan)]-3′-yl)-4-oxo-3,4-dihydroquinazoline-2-carboxylic acid], the EC50 in assay [1] was > 20 µM. Moreover, in assay [1], the Emax worked out at 1%. The IC50 against CYP1A2 is > 20 µM; against CYP2C9 it was > 20 µM; on CYP2D6, 2.6 µM; against CYP3A4, > 20 µM.
`O=c1[nH]c2ccccc2c(=O)n1C1C[C@H]2CCC[C@@H](C1)N2C1C[C@H]2CCC[C@@H](C1)C2` (stereo partly drawn) [12 (D1a)]: the EC50 in assay [1] is > 20 µM. In addition, in assay [1], the Emax was found to be 1.33 ± 0.33%. Also, the IC50 is > 20 µM on CYP1A2, > 20 µM against CYP2C9, 8.9 µM against CYP2D6 and > 20 µM on CYP3A4.
Take `O=C(O)Cn1c(=O)n(C2C[C@H]3CCC[C@@H](C2)N3C2C[C@H]3CCC[C@@H](C2)C3)c(=O)c2ccccc21` (stereo partly drawn) [15 (D3a), 2-(3-((1R,1′R,3r,3′R,5S,5′S)-[3,9′-bi(9′-azabicyclo[3.3.1]nonan)]-3′-yl)-2,4-dioxo-3,4-dihydroquinazolin-1(2H)-yl)acetic acid]: the EC50 in assay [1] was > 20 µM. Also, the IC50 at CYP1A2, at CYP2C9, on CYP2D6 and against CYP3A4 was > 20 µM each time.
`O=C(O)CNC(=O)Cn1c(=O)n(C2C[C@H]3CCC[C@@H](C2)N3C2C[C@H]3CCC[C@@H](C2)C3)c(=O)c2ccccc21` (stereo partly drawn) [18 (D28a), 2-(2-(3-((1R,1′R,3r,3′R,5S,5′S)-[3,9′-bi(9′-azabicyclo[3.3.1]nonan)]-3′-yl)-2,4-dioxo-3,4-dihydroquinazolin-1(2H)-yl)acetamido)acetic acid]: the EC50 in assay [1] is > 20 µM. Further, the Emax in assay [1] amounted to 1%. Moreover, the IC50 is > 20 µM on CYP1A2, > 20 µM on CYP2C9, 1.6 µM against CYP2D6 and > 20 µM on CYP3A4.
With `O=C(O)Cn1c(=O)n(C2C[C@H]3CCC[C@@H](C2)N3C2C[C@H]3CCCC[C@@H](C2)C3)c(=O)c2ccccc21` (stereo partly drawn) [21 (J3a), 2-(3-((1R,3R,5S)-9-((1R,6S,8r)-bicyclo[4.3.1]decan-8-yl)-9-azabicyclo[3.3.1]nonan-3-yl)-2,4-dioxo-3,4-dihydroquinazolin-1(2H)-yl)acetic acid], the EC50 in assay [1] was > 20 µM. Besides, the IC50 was 5.5 µM against CYP1A2, > 20 µM against CYP2C9, > 20 µM on CYP2D6 and 2.3 µM at CYP3A4.
As to `CCC1C[C@@H]2CC(N3[C@@H]4CCC[C@H]3CC(n3c(=O)c5ccccc5n(CC(=O)O)c3=O)C4)C[C@H](C1)C2` (stereo partly drawn) [24 (D459a), 2-(3-((1R,1′R,3r,3′R,5S,5′S)-7-ethyl-[3,9′-bi(9′-azabicyclo[3.3.1]nonan)]-3′-yl)-2,4-dioxo-3,4-dihydroquinazolin-1(2H)-yl)acetic acid], the EC50 in assay [1] was > 20 µM. The IC50 was > 20 µM against CYP1A2, > 20 µM on CYP2C9, 18.7 µM against CYP2D6 and 5.8 µM against CYP3A4. The compound also had a Ki at Nociceptin receptor of 0.229 µM.
